Series [1] can be described thus: Encapsulation efficiency, RiboGreen RNA quantitation assay (CA HA modFlu mRNA LNPs). It counts as physicochemical. Conditions: LNP with CA HA modFlu mRNA. The method, boiled down: (§1)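 LNPs of ionizable lipid:cholesterol:DSPC:ALC-0159 (molar ratio about 46.3:42.7:9.4:1.6) formed by syringe-pump mixing of ethanolic lipids with mRNA at N:P about 6:1, then dialysed into buffer (e.g., Tris) and filtered. Size and PDI measured by DLS; total RNA and encapsulation efficiency by RiboGreen.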

Series [2] can be described thus: LNP size and polydispersity index by Malvern Zetasizer dynamic light scattering (CA HA modFlu mRNA LNPs). It counts as physicochemical. Conditions: DLS; for Size (nm): LNP of the ionizable lipid:cholesterol:DSPC:ALC-0159 about 46.3:42.7:9.4:1.6, N:P about 6:1, CA HA modFlu mRNA; for PDI: LNP with CA HA modFlu mRNA. The method, boiled down: as §1
The next series deals with HEK293F cells. Description: In vitro expression of novel ionizable lipid nanoparticles, high content imaging (CA HA modFlu mRNA). Conditions: LNP with CA HA modFlu mRNA. The series is classed as cell-based. The method, boiled down:
(§2)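 Lipid nanoparticles of ionizable lipid, cholesterol, DSPC and ALC-0159 (about 46.3:42.7:9.4:1.6 molar), N:P about 6:1, carrying mRNA, dosed onto cells overnight at 37° C., 5% CO2. Cells fixed and stained with Hoechst plus antibody to encoded protein; nuclei and antigen-positive cells counted by high-content imaging.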

In another series the test system is Hela cells. The series is described as above. It counts as cell-based. Conditions: LNP with CA HA modFlu mRNA. The method, boiled down:
as §2

As to `CCCCCCCCC(CC1CCCC1)C(=O)OCC(COC(=O)C(CCCCCCCC)CC1CCCC1)N1CCC2(CCN(CCCCO)CC2)CC1` (stereo not shown) [Example 32, 2-(9-(4-hydroxybutyl)-3,9-diazaspiro[5.5]undecan-3-yl)propane-1,3-diyl bis(2-(cyclopentylmethyl)decanoate)], the EE % in series [1] is recorded as 100%. Besides, in series [2], the “Size (nm)” value is 132 nm and the PDI stood at 0.060. Besides, the “EC50 Hek293F (ng/well)” value with HEK293F cells is given as 0.96 ng/well. Also, in the series on Hela cells, the “EC50 Hela (ng/well)” value was found to be 0.91 ng/well.
Consider `CCCCCCCCC(CCCCCC)C(=O)OCC(COC(=O)C(CCCCCC)CCCCCCCC)N1CCC2(CCN(CCCCO)C2)C1` (stereo not shown) [Example 33, 2-(7-(4-hydroxybutyl)-2,7-diazaspiro[4.4]nonan-2-yl)propane-1,3-diyl bis(2-hexyldecanoate)], for which the EE % in series [1] came to 99%. Moreover, in series [2], the “Size (nm)” value is recorded as 115 nm and the PDI was 0.090. In addition, in the series on HEK293F cells, the “EC50 Hek293F (ng/well)” value came out at 0.22 ng/well. For the same compound, in the series with Hela cells, the “EC50 Hela (ng/well)” value amounted to 0.29 ng/well.
In series [1], `CCCCCCCCC(CCCCCC)C(=O)OCC(COC(=O)C(CCCCCC)CCCCCCCC)N1CC2(CCN(CCCCO)CC2)C1` (stereo not shown) [Example 34, 2-(7-(4-hydroxybutyl)-2,7-diazaspiro [3.5]nonan-2-yl)propane-1,3-diyl bis(2-hexyldecanoate)] showed an EE % of 99%. Moreover, in series [2], the “Size (nm)” value stood at 130 nm and the PDI is 0.040. Besides, in the series on HEK293F cells, the “EC50 Hek293F (ng/well)” value stood at 2.1 ng/well. Besides, the “EC50 Hela (ng/well)” value with Hela cells came out at 3.8 ng/well.
Regarding `CCCCCCCCC(CC1CC=CC1)C(=O)OCC(COC(=O)C(CCCCCCCC)CC1CC=CC1)N1CCC2(CCN(CCCCO)CC2)CC1` (stereo not shown) [Example 35, 2-(9-(4-hydroxybutyl)-3,9-diazaspiro[5.5]undecan-3-yl)propane-1,3-diyl bis(2-(cyclopent-3-en-1-ylmethyl)decanoate)], the EE % in series [1] stood at 99%. For the same compound, in series [2], the “Size (nm)” value was 102 nm and the PDI turned out to be 0.040. Besides, the “EC50 Hek293F (ng/well)” value with HEK293F cells turned out to be 21.3 ng/well. Moreover, in the series with Hela cells, the “EC50 Hela (ng/well)” value was 1.4 ng/well.
For `CCCCCCCCC(CCC1CCC1)C(=O)OCC(COC(=O)C(CCCCCCCC)CCC1CCC1)N1CCC2(CCN(CCCCO)CC2)CC1` (stereo not shown) [Example 36, 2-(9-(4-hydroxybutyl)-3,9-diazaspiro[5.5]undecan-3-yl)propane-1,3-diyl bis(2-(2-cyclobutylethyl)decanoate)], in that order: 99%, 136 nm, 0.059, 1.9 ng/well and 2.4 ng/well.
As for `CCCCCCCCC(CC1CCCCC1)C(=O)OCC(COC(=O)C(CCCCCCCC)CC1CCCCC1)N1CCC2(CCN(CCCCO)CC2)CC1` (stereo not shown) [Example 37, 2-(9-(4-hydroxybutyl)-3,9-diazaspiro[5.5]undecan-3-yl)propane-1,3-diyl bis(2-(cyclohexylmethyl)decanoate)], the EE % in series [1] is 99%. For the same compound, in series [2], the “Size (nm)” value is on record as 143 nm and the PDI was 0.070. Moreover, the “EC50 Hek293F (ng/well)” value with HEK293F cells was found to be 0.67 ng/well. Besides, the “EC50 Hela (ng/well)” value in the series on Hela cells is 0.90 ng/well.
For `CCCCC(CCCC)C(CCCC)CCC(=O)OCC(COC(=O)CCC(CCCC)C(CCCC)CCCC)N1CCC2(CCN(CCCCO)CC2)CC1` (stereo not shown) [Example 38, 2-(9-(4-hydroxybutyl)-3,9-diazaspiro[5.5]undecan-3-yl)propane-1,3-diyl bis(4,5-dibutylnonanoate)], in that order: 100%, 146 nm, 0.100, 28.1 ng/well and 7.0 ng/well.
Take `CCCCCCC(CCCC)(CCCC)CC(=O)OCC(COC(=O)CC(CCCC)(CCCC)CCCCCC)N1CCC2(CCN(CCCCO)CC2)CC1` [Example 39, 2-(9-(4-hydroxybutyl)-3,9-diazaspiro[5.5]undecan-3-yl)propane-1,3-diyl bis(3,3-dibutylnonanoate)]: in series [1], the EE % turned out to be 100%. In series [2], the “Size (nm)” value is 134 nm and the PDI came to 0.080. Further, the “EC50 Hek293F (ng/well)” value with HEK293F cells was determined as 4.1 ng/well. Also, in the series on Hela cells, the “EC50 Hela (ng/well)” value is on record as 3.4 ng/well.
As for `CCCCCCCC(CCCCCCC)CCC(=O)OCC(COC(=O)CCC(CCCCCCC)CCCCCCC)N1CCC2(CCN(CCCCO)CC2)CC1` [Example 40, 2-(9-(4-hydroxybutyl)-3,9-diazaspiro[5.5]undecan-3-yl)propane-1,3-diyl bis(4-heptylundecanoate)], the EE % in series [1] was determined as 100%. Besides, in series [2], the “Size (nm)” value is reported as 117 nm and the PDI was 0.080. In addition, the “EC50 Hek293F (ng/well)” value with HEK293F cells worked out at 5.6 ng/well. Further, in the series on Hela cells, the “EC50 Hela (ng/well)” value amounted to 3.6 ng/well.
With `CCCCCCCC(CCCCCCC)C(=O)OCC(COC(=O)C(CCCCCCC)CCCCCCC)N1CCC2(CCN(CCCCCO)C2)C1` (stereo not shown) [Example 41, 2-(7-(5-hydroxypentyl)-2,7-diazaspiro [4.4]nonan-2-yl)propane-1,3-diyl bis(2-heptylnonanoate)], in series [1], the EE % is reported as 99%. In series [2], the “Size (nm)” value was 119 nm and the PDI was 0.060. Also, in the series on HEK293F cells, the “EC50 Hek293F (ng/well)” value is recorded as 0.20 ng/well. Moreover, the “EC50 Hela (ng/well)” value in the series on Hela cells is reported as 0.30 ng/well.
Regarding `CCCCCCCCCC(=O)OCC(COC(=O)C(CCCCCC)CCCCCCCC)N1CCC2(CCN(CCCCO)CC2)CC1` (stereo not shown) [Example 42, 3-(decanoyloxy)-2-(9-(4-hydroxybutyl)-3,9-diazaspiro[5.5]undecan-3-yl)propyl 2-hexyldecanoate], the EE % in series [1] came to 99%. Further, in series [2], the “Size (nm)” value was 100 nm and the PDI is 0.080. The “EC50 Hek293F (ng/well)” value in the series on HEK293F cells amounted to 42.7 ng/well. Also, in the series with Hela cells, the “EC50 Hela (ng/well)” value is reported as >50 ng/well.
`CCCCCC/C=C\CCCC(=O)OCC(COC(=O)C(CCCCCC)CCCCCCCC)N1CCC2(CCN(CCCCO)CC2)CC1` (stereo not shown) [Example 43, 3-((2-hexyldecanoyl)oxy)-2-(9-(4-hydroxybutyl)-3,9-diazaspiro[5.5]undecan-3-yl)propyl (Z)-dodec-5-enoate] gave an EE % in series [1] of 99%. In series [2], the “Size (nm)” value was 89 nm and the PDI was 0.111. Moreover, the “EC50 Hek293F (ng/well)” value in the series on HEK293F cells is listed as 33.3 ng/well. The “EC50 Hela (ng/well)” value with Hela cells turned out to be 14.2 ng/well.
As for `CCCCCCCCC(CCCCCC)C(=O)OCC(COC(=O)C(CCCCCCCC)CC1CCC1)N1CCC2(CCN(CCCCO)CC2)CC1` (stereo not shown) [Example 44, 3-((2-(cyclobutylmethyl)decanoyl)oxy)-2-(9-(4-hydroxybutyl)-3,9-diazaspiro[5.5]undecan-3-yl)propyl 2-hexyldecanoate], the EE % in series [1] came out at 99%. In addition, in series [2], the “Size (nm)” value was 119 nm and the PDI is listed as 0.080. Further, the “EC50 Hek293F (ng/well)” value in the series with HEK293F cells was determined as 0.28 ng/well. Besides, in the series on Hela cells, the “EC50 Hela (ng/well)” value is 0.30 ng/well.
For `CCCCCCCCCC(CCCC)C(=O)OCC(COC(=O)C(CCCCCC)CCCCCCCC)N1CCC2(CCN(CCCCO)CC2)CC1` (stereo not shown) [Example 45, 3-((2-hexyldecanoyl)oxy)-2-(9-(4-hydroxybutyl)-3,9-diazaspiro[5.5]undecan-3-yl)propyl 2-butylundecanoate], in that order: 99%, 117 nm, 0.060, 1.1 ng/well and 1.1 ng/well.

The values above are taken from US20250367129A1, “Lipid Compounds and Uses Thereof” (Pfizer Inc., priority 2022, published 2025).
